Assay [1] has as its target Kdr (Homo sapiens, UniProt P35968). Kind of assay: Kinase activity assay, Kdr.
In assay [2] the target is B-Raf V600E (Homo sapiens, UniProt P15056, V600E). Kind of assay: Kinase activity assay, B-Raf V600E. It counts as biochemical. To be noted: read-out: activity toward kinase B-Raf V600E, IC50.
Assay [3] concerns the target B-Raf (Homo sapiens, UniProt P15056). Description: Kinase activity assay, B-Raf. It counts as biochemical. The conditions noted are these: read-out: activity toward kinase B-Raf, IC50.

As usually defined, the IC50 is the point on the concentration scale where inhibition reaches its midpoint.

Kdr, sequence (P35968 20-1356): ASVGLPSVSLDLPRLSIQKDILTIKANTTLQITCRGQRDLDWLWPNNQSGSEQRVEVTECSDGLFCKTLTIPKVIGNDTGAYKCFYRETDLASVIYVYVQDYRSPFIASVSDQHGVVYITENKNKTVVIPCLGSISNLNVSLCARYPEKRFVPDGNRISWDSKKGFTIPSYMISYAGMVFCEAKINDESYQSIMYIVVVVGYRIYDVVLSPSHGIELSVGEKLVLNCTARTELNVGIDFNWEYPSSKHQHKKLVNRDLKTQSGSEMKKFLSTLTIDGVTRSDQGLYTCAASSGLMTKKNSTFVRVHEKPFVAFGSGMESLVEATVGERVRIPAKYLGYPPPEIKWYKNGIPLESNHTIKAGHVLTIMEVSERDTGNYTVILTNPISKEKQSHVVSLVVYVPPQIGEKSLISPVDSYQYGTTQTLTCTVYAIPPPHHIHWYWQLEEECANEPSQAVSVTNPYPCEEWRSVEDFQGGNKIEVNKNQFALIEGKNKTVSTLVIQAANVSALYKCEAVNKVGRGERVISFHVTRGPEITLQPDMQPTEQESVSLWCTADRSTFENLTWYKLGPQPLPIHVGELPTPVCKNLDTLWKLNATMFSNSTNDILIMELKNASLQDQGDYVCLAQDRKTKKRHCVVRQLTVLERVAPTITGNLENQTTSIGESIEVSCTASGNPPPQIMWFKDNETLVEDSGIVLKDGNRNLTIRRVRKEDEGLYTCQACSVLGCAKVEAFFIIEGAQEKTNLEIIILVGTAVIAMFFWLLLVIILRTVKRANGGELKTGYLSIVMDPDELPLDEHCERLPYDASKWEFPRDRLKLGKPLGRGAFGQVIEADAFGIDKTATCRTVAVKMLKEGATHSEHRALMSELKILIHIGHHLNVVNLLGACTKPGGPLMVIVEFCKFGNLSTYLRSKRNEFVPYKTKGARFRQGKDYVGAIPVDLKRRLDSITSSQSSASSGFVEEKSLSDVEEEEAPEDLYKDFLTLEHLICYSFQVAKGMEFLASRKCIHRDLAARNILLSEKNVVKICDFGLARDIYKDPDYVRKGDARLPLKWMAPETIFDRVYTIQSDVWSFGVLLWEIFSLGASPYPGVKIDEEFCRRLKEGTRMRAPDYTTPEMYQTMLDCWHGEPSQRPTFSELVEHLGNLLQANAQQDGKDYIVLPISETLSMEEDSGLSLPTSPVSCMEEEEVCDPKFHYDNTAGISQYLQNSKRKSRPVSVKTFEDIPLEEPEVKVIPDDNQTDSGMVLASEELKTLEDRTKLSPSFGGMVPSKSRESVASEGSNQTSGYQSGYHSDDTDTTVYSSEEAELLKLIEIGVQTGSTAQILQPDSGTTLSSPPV
B-Raf V600E, sequence (P15056 whole entry V600E): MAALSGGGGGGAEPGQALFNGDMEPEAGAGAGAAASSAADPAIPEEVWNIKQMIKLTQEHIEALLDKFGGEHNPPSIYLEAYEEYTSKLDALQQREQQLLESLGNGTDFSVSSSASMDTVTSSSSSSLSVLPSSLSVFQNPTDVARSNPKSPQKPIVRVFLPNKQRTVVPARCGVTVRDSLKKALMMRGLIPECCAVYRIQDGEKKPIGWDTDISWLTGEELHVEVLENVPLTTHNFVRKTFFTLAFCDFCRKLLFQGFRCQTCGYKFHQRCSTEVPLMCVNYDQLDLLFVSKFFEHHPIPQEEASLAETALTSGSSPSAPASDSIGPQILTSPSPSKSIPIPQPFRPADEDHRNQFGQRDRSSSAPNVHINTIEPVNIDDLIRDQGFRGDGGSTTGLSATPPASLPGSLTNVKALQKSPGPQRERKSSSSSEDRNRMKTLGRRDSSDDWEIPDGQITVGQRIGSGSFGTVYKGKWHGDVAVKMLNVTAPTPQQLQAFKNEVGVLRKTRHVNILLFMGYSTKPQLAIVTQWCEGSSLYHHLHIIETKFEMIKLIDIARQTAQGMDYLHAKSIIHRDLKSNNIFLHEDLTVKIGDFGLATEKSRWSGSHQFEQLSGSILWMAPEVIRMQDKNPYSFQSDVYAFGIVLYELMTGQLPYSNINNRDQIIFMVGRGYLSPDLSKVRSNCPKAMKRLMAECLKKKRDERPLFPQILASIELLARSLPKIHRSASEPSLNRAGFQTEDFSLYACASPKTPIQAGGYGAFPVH
B-Raf, sequence (P15056 whole entry): as the sequence (P15056 whole entry V600E) above, with E600V counted along it

For the molecule `N#Cc1cnc2[nH]cc(C(=O)c3cccc(NS(=O)(=O)Cc4ccncc4)c3F)c2c1` [P-2097, N-[3-(5-Cyano-1H-pyrrolo[2,3-b]pyridine-3-carbonyl)-2-fluoro-phenyl]-C-pyridin-4-yl-methanesulfonamide], the IC50 in assay [1] and in assay [2] was not above 10 µM throughout.

`N#Cc1cnc2[nH]cc(C(=O)c3c(F)ccc(NS(=O)(=O)Cc4ccccn4)c3F)c2c1` [P-2093, N-[3-(5-Cyano-1H-pyrrolo[2,3-b]pyridine-3-carbonyl)-2,4-difluoro-phenyl]-C-pyridin-2-yl-methanesulfonamide]: the IC50 in assay [1] and in assay [2] was not above 10 µM throughout.

Take `Cc1c(S(=O)(=O)Nc2cccc(C(=O)c3c[nH]c4ncc(C#N)cc34)c2F)cnn1C` [P-2091, 1,5-Dimethyl-1H-pyrazole-4-sulfonic acid [3-(5-cyano-1H-pyrrolo[2,3-b]pyridine-3-carbonyl)-2-fluoro-phenyl]-amide]: the IC50 in assay [2] was not above 10 µM.

On to `N#Cc1cnc2[nH]cc(C(=O)c3cccc(NS(=O)(=O)Cc4ccccn4)c3F)c2c1` [P-2098, N-[3-(5-Cyano-1H-pyrrolo[2,3-b]pyridine-3-carbonyl)-2-fluoro-phenyl]-C-pyridin-2-yl-methanesulfonamide], for which the IC50 in assay [2] was not above 10 µM.

Consider `N#Cc1cnc2[nH]cc(C(=O)c3cccc(NS(=O)(=O)Cc4cccnc4)c3F)c2c1` [P-2096, N-[3-(5-Cyano-1H-pyrrolo[2,3-b]pyridine-3-carbonyl)-2-fluoro-phenyl]-C-pyridin-3-yl-methanesulfonamide], for which the IC50 in assay [1] and in assay [2] was not above 10 µM throughout.

In the case of `O=C(c1c(F)ccc(NS(=O)(=O)C2(C(=O)O)CC2)c1F)c1c[nH]c2ncc(Br)cc12` [P-2349, 1-[3-(5-Bromo-1H-pyrrolo[2,3-b]pyridine-3-carbonyl)-2,4-difluoro-phenylsulfamoyl]-cyclopropanecarboxylic acid], the IC50 in assay [1] was not above 10 µM.

On to `CCCS(=O)(=O)Nc1ccc(F)c(C(=O)c2c[nH]c3ncc(-c4ccc(S(=O)(=O)N5CCCCC5)cc4)cc23)c1F` [P-2186, Propane-1-sulfonic acid (2,4-difluoro-3-{5-[4-(piperidine-1-sulfonyl)-phenyl]-1H-pyrrolo[2,3-b]pyridine-3-carbonyl}-phenyl)-amide], for which the IC50 in assay [3], in assay [1] and in assay [2] was not above 10 µM in each case.

On to `Cc1c(S(=O)(=O)Nc2ccc(F)c(C(=O)c3c[nH]c4ncc(C#N)cc34)c2F)cnn1C` [P-2082, 1,5-Dimethyl-1H-pyrazole-4-sulfonic acid [3-(5-cyano-1H-pyrrolo[2,3-b]pyridine-3-carbonyl)-2,4-difluoro-phenyl]-amide], for which the IC50 in assay [1] and in assay [2] was not above 10 µM each time.

Consider `CN(C)S(=O)(=O)Nc1cccc(C(=O)c2c[nH]c3ncc(Cl)cc23)c1` [P-2470, N,N-dimethylamino-sulfonic acid [3-(5-chloro-1H-pyrrolo[2,3-b]pyridine-3-carbonyl)-phenyl]-amide], for which, in assay [1], the IC50 is not above 10 µM.

`CCCS(=O)(=O)Nc1ccc(F)c(C(=O)c2c[nH]c3ncc(S(C)(=O)=O)cc23)c1F` [P-2173, Propane-1-sulfonic acid [2,4-difluoro-3-(5-methanesulfonyl-1H-pyrrolo[2,3-b]pyridine-3-carbonyl)-phenyl]-amide]: the IC50 in assay [3] and in assay [2] was not above 10 µM in each case.

For the molecule `O=C(c1cccc(NS(=O)(=O)C2CCCC2)c1)c1c[nH]c2ncc(F)cc12` [P-2463, Cyclopentanesulfonic acid [3-(5-fluoro-1H-pyrrolo[2,3-b]pyridine-3-carbonyl)-phenyl]-amide], the IC50 in assay [1] is not above 10 µM.

Take `N#Cc1cnc2[nH]cc(C(=O)c3c(F)ccc(NS(=O)(=O)Cc4ccncc4)c3F)c2c1` [P-2095, N-[3-(5-Cyano-1H-pyrrolo[2,3-b]pyridine-3-carbonyl)-2,4-difluoro-phenyl]-C-pyridin-4-yl-methanesulfonamide]: the IC50 in assay [1] and in assay [2] was not above 10 µM each time.

For the origin of these results see patent publication US20120122860A1, “SOLID FORMS OF SULFONAMIDES AND AMINO ACIDS” (Plexxikon, Inc., priority 2009, published 2012).
